Experimental data taken from patent US7846943B2, “Azolopyridin-2-one derivatives as lipase and phospholipase inhibitors” (Sanofi-Aventis, priority 2005, dated 2010).

Target: T1, endothelial lipase (EL) (Homo sapiens, UniProt Q9Y5X9)
T1 construct: made in house; host or cells: recombinant cell lines (CHO, HEK293); concentrated conditioned medium used as enzyme solution
T1 sequence (Q9Y5X9 21-500): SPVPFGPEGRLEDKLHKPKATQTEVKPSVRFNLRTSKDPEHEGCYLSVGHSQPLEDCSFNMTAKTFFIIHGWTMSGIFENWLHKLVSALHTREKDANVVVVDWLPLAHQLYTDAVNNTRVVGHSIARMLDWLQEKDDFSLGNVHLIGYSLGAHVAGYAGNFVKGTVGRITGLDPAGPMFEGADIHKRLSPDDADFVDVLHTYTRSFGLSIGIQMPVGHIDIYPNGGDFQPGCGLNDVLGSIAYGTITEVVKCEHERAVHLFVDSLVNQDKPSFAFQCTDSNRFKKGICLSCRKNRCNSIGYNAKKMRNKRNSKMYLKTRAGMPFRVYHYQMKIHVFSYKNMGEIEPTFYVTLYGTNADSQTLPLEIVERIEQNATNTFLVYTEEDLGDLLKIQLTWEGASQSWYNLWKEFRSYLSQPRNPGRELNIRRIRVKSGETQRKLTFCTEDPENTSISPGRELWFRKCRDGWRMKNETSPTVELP
Assay: Further EL inhibition assay
Type: biochemical
Conditions: Bodipy-labelled phospholipid substrate, 37° C., 90 minutes, HPTLC fluorescence readout; EL from conditioned medium of recombinant cell lines (CHO, HEK293)
Description: EL is released as secretory protein in high concentration into cell culture medium (conditioned medium) by recombinant cell lines (CHO, HEK293). This is employed as enzyme solution after concentration.
The enzymatic activity is reduced as a function of the inhibitor concentration used, and the inhibitor concentration at which a half-maximum enzymatic activity is observed is called IC50.
The phospholipase-specific substrate 1,2-bis(4,4-difluoro-5,7-dimethyl-4-bora-3a,4a-diaza-s-indacene-3-undecanoyl)-sn-glycero-3-phosphocholine, (manufacturer Molecular Probes) is used to characterize the enzymatic activity of endothelial lipase and the effect of inhibitors. Hydrolysis of the A1 ester linkage of this phospholipid by the enzyme liberates the fluorescent dye Bodipy which can be detected after separation by thin-layer chromatography on an HPTLC plate (silica gel 60, Merck) or directly in the reaction vessel by measuring the fluorescence. The substrate solution is prepared by dissolving 100 μg of 1,2-bis(4,4-difluoro-5,7-dimethyl-4-bora-3a,4a-diaza-s-indacene-3-undecanoyl)-sn-glycero-3-phospho-choline (manufacturer Molecular Probes) in 100 μl of DMSO and taking up in 2.4 mg of tripalmitin (Sigma) in 393 μl of chloroform which comprises 20 mg/ml DOP-choline (1,2-dioleoyl-sn-glycero-3-phosphocholine). 39.3 μl of this lipid mixture are transferred into a fresh reaction vessel, and the solvent is evaporated off. The lipid mixture is dissolved in 4 ml of 200 mM TRIS-HCl, 150 mM sodium chloride, pH=7.4, by sonication twice. The subsequent enzymic reaction takes place at 37° C. for 90 minutes. For this purpose, 20 μl of the substrate solution are incubated with 2 μl of inhibitor of appropriate concentration (dissolved in 10% DMSO, using 10% strength DMSO solution for control) and 2 μl of enzyme solution (conditioned medium). The 4 μl of the assay mixture are loaded onto an HPTLC plate (silica gel 60, Merck), and the liberated fluorescent dye is separated for detection with an eluent (diethyl ether:petroleum benzine:acetic acid [78:22:1]). After evaporation of the eluent, the plate is read in a fluorescence scanner. An increased liberation of the fluorescent dye in the uninhibited reaction is to be observed as a measure of the enzymic activity.

Row | SMILES | IC50
1 | Cc1ccc(CNC(=O)n2c(=O)oc3cccnc32)cc1C [Example 5, 2-Oxo-oxazolo[4,5-b]pyridine-3-(3,4-dimethylbenzyl)carboxamide] | 10 nM
2 | CCCCCCCNC(=O)n1c(=O)oc2cccnc21 [Example 9, 2-Oxo-oxazolo[4,5-b]pyridine-3-heptylcarboxamide] | 11 nM
3 | CCCCCCNC(=O)n1c(=O)oc2cccnc21 [Example 3, 2-Oxo-oxazolo[4,5-b]pyridine-3-hexylcarboxamide] | 69 nM
4 | CCCCCCCCCNC(=O)n1c(=O)oc2cccnc21 [Example 20, 2-Oxo-oxazolo[4,5-b]pyridine-3-nonylcarboxamide] | 90 nM
5 | CCCCNC(=O)n1c(=O)oc2cccnc21 [Example 11, 2-Oxo-oxazolo[4,5-b]pyridine-3-butylcarboxamide] | 354 nM
6 | O=C(N[C@@H]1CCc2ccccc21)n1c(=O)oc2cccnc21 [Example 14] | 180 nM
7 | Cc1ccccc1CNC(=O)n1c(=O)oc2cccnc21 [Example 1, 2-Oxo-oxazolo[4,5-b]pyridin-3-(2-methylbenzyl)carboxamide] | 50 nM
8 | CCCCCCCCNC(=O)n1c(=O)oc2cccnc21 [Example 19, 2-Oxo-oxazolo[4,5-b]pyridine-3-octylcarboxamide] | 83 nM
9 | O=C(NCC1CCCCC1)n1c(=O)oc2cccnc21 [Example 18, 2-Oxo-oxazolo[4,5-b]pyridine-3-cyclohexylmethylcarboxamide] | 480 nM

Other lines, results leading:

Row | IC50 | SMILES
10 | 390 nM | Cc1cccc(CNC(=O)n2c(=O)oc3cccnc32)c1 [Example 4, 2-Oxo-oxazolo[4,5-b]pyridine-3-(3-methylbenzyl)carboxamide]
11 | 180 nM | CCCCCCCCCCCCNC(=O)n1c(=O)oc2cccnc21 [Example 16, 2-Oxo-oxazolo[4,5-b]pyridin-3-dodecylcarboxamide]
12 | 0.5 nM | O=C(NC1CCCc2ccccc21)n1c(=O)oc2cccnc21 (stereo not drawn) [Example 13, 2-Oxo-oxazolo[4,5-b]pyridin-3-(1,2,3,4-tetrahydronaphthalen-1-yl)carboxamide]
13 | 61 nM | Cc1ccc2oc(=O)n(C(=O)NCc3ccccc3C)c2n1 [Example 17, 5-Methyl-2-oxo-oxazolo[4,5-b]pyridine-3-(2-methylbenzyl)carboxamide]
14 | 230 nM | O=C(N[C@H]1CCc2ccccc21)n1c(=O)oc2cccnc21 [Example 15]
15 | 10 nM | Cc1ccccc1CNC(=O)n1c(=O)oc2cc(Br)cnc21 [Example 2, 6-Bromo-2-oxo-oxazolo[4,5-b]pyridine-3-(2-methylbenzyl)carboxamide]
